pIC50: −log10 of the molar value. Where two headings read alike, the source gives them in different places.
Tests used:
Type in all cases: cell-based
[1] = target: EGFR (A767_dupASV) expressing Ba/F3 stable cell line (Homo sapiens, UniProt P00533, DUP767-769, cells depend on it); assay: Cellular proliferation (Alamar Blue) assay, EGFR (A767_dupASV) Ba/F3; conditions: 72 hr, read-out: A767 IC50
How it was run: (§1)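 Compound exposure lasted 72 h at 37 °C over a final 10–0.0005 μM range in 3-fold steps, with viability read by Alamar Blue after a further 3 h. Ba/F3 mutant lines were plated at 15,000 cells/well in RPMI/10% FBS, A431 at 5000/well in DMEM/10% FBS, 16–18 h beforehand.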

[2] = target: EGFR(D770_N771insSVD) expressing Ba/F3 stable cell line (Homo sapiens, UniProt P00533, DUP768-770, cells depend on it); assay: Cellular proliferation (Alamar Blue) assay, EGFR(D770_N771insSVD) Ba/F3; conditions: 72 hr, read-out: D770 IC50
How it was run: as §1

A431 cells = assay: Cellular proliferation (Alamar Blue) assay, A431 cells; conditions: A431 cells, 72 hr, Alamar Blue, read-out: A431 IC50
How it was run: as §1

[3] = target: HER2 (A775_G776insYVMA) expressing Ba/F3 stable cell line (Homo sapiens, UniProt P04626, DUP772-775, cells depend on it); assay: Cellular proliferation (Alamar Blue) assay, HER2 (A775_G776insYVMA) Ba/F3; conditions: HER2 (A775_G776insYVMA) Ba/F3 cells; 72 hr; Alamar Blue; read-out: YVMA IC50
How it was run: as §1

Sequence of HER2 (A775_G776insYVMA) expressing Ba/F3 stable cell line (P04626 with tags, fused parts or gaps DUP772-775): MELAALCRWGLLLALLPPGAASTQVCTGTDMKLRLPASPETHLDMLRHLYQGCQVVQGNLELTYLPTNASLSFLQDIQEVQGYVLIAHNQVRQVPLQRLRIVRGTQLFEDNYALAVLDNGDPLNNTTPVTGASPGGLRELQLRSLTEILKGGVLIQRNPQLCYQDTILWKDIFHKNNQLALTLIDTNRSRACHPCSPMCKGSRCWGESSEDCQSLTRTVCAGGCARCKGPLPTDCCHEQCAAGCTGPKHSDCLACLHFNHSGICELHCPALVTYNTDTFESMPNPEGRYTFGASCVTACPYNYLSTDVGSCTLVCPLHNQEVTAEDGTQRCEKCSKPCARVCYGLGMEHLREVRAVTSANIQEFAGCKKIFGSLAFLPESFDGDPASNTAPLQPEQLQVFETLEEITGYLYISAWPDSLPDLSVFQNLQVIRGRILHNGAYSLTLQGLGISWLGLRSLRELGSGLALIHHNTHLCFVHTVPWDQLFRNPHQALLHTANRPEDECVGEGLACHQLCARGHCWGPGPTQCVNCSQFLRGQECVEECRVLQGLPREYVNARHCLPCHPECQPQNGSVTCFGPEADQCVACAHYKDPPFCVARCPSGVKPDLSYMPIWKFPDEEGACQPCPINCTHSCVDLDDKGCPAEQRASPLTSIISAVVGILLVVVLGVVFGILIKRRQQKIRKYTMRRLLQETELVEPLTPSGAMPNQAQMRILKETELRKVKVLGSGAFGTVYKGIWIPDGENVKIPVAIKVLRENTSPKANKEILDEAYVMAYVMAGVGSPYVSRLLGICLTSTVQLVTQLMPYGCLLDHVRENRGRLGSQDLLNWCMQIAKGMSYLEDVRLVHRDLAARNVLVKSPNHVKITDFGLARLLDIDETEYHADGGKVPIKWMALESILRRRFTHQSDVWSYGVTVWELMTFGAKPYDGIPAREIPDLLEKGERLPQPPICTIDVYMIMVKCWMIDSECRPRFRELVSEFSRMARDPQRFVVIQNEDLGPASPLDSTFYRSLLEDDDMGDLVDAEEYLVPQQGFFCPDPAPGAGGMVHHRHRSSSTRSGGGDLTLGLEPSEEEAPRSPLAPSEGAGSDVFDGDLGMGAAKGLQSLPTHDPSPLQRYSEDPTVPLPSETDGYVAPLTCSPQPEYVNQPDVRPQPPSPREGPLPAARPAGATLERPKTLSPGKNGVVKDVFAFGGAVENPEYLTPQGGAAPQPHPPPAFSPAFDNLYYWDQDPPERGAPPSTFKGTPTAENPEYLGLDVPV
Sequence of EGFR (A767_dupASV) expressing Ba/F3 stable cell line (P00533 with tags, fused parts or gaps DUP767-769): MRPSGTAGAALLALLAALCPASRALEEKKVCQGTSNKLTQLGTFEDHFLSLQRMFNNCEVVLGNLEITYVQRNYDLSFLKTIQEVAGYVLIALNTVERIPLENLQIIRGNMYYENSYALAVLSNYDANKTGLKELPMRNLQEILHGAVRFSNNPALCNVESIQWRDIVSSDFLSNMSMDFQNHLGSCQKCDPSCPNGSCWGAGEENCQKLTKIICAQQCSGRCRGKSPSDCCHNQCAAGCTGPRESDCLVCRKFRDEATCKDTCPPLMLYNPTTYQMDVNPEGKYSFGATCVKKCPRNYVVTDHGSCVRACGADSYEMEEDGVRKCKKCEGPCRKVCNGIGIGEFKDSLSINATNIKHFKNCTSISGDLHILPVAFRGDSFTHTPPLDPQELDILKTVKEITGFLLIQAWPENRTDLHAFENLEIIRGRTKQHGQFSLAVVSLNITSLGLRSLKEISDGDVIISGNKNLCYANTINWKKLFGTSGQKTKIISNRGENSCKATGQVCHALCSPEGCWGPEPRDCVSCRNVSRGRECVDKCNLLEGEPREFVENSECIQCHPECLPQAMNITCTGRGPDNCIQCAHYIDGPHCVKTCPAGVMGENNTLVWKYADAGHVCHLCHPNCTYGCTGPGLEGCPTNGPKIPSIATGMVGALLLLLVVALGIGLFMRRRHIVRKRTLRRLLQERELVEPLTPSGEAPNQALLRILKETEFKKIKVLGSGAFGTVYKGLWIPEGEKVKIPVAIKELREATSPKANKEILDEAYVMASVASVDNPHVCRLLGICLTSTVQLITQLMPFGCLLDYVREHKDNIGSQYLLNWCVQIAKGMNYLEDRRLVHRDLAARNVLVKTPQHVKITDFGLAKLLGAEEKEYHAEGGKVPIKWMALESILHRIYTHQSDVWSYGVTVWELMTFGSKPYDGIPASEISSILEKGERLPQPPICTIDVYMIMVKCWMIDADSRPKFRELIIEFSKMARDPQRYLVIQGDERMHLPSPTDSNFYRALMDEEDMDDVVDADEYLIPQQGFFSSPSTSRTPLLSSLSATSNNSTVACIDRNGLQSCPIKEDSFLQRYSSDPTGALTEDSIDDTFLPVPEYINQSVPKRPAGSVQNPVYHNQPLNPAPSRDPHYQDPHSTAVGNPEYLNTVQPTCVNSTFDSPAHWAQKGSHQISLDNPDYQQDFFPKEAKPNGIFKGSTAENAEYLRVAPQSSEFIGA
Sequence of EGFR(D770_N771insSVD) expressing Ba/F3 stable cell line (P00533 with tags, fused parts or gaps DUP768-770): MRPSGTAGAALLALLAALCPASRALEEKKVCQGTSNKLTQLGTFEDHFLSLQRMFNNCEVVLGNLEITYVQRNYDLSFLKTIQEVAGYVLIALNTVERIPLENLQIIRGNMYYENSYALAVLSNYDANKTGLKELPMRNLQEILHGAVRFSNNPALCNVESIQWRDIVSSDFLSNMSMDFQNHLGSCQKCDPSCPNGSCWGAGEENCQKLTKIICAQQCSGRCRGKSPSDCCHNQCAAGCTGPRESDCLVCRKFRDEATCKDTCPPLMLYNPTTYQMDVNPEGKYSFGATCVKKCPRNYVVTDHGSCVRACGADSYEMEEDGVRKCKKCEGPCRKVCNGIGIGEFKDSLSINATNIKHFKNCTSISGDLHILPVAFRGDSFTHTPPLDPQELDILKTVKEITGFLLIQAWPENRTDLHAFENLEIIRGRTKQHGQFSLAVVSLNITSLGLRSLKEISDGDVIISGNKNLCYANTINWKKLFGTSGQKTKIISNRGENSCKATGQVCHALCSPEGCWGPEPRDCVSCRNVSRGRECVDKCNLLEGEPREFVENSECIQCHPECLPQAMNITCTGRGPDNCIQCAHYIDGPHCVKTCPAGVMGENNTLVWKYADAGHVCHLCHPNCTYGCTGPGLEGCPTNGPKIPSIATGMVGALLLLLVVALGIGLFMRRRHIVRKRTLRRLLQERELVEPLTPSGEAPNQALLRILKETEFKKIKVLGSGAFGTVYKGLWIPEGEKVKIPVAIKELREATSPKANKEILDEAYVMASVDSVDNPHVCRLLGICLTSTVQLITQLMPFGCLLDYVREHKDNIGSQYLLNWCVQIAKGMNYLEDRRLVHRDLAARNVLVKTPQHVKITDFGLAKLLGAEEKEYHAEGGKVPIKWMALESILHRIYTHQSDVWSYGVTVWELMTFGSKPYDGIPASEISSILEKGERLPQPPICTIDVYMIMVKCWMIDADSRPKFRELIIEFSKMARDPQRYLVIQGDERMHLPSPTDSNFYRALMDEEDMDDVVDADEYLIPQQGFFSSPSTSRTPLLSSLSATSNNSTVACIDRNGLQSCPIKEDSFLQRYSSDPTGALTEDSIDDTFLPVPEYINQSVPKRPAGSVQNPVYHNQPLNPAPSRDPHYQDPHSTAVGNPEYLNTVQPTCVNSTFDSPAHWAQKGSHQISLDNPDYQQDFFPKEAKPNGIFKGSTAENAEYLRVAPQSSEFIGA

C=CC(=O)Nc1ccc(F)c(Nc2nc(Nc3cnn(C)c3)ncc2-c2cc(F)c(Br)c(Cl)c2)c1 [Compound 123, N-(3-((5-(4-bromo-3-chloro-5-fluorophenyl)-2-((1-methyl-1H-pyrazol-4-yl)amino)pyrimidin-4-yl)amino)-4-fluorophenyl)acrylamide]
GI50 [1]: 50 nM | GI50 [2]: 40 nM | pIC50 (A431 cells; Homo sapiens, A-431, 72 h): 7.15 | GI50 [3]: 66 nM

C=CC(=O)Nc1cccc(Nc2nc(Nc3cnn(C)c3)ncc2-c2ccc(OC(F)F)c(F)c2)c1 [Compound 124, N-(3-((5-(4-(difluoromethoxy)-3-fluorophenyl)-2-((1-methyl-1H-pyrazol-4-yl)amino)pyrimidin-4-yl)amino)phenyl)acrylamide]
GI50 [1]: 21 nM | GI50 [2]: 11 nM | pIC50 (A431 cells; Homo sapiens, A-431, 72 h): 8.22 | GI50 [3]: 49 nM

C=CC(=O)Nc1ccc(F)c(Nc2nc(Nc3cnn(C)c3)ncc2-c2cc(F)c(F)c(OC)c2)c1 [Compound 126, N-(3-((5-(3,4-difluoro-5-methoxyphenyl)-2-((1-methyl-1H-pyrazol-4-yl)amino)pyrimidin-4-yl)amino)-4-fluorophenyl)acrylamide]
GI50 [1]: 100 nM | GI50 [2]: 40 nM | pIC50 (A431 cells; Homo sapiens, A-431, 72 h): 7.37 | GI50 [3]: 153 nM

C=CC(=O)Nc1cccc(Nc2nc(Nc3cnn(C)c3)ncc2-c2cc(F)cc(OC)c2)c1 [Compound 127, N-(3-((5-(3-fluoro-5-methoxyphenyl)-2-((1-methyl-1H-pyrazol-4-yl)amino)pyrimidin-4-yl)amino)phenyl)acrylamide]
GI50 [1]: 312 nM | GI50 [2]: 89 nM | pIC50 (A431 cells; Homo sapiens, A-431, 72 h): 6.91 | GI50 [3]: 167 nM

C=CC(=O)Nc1cc(Br)cc(Nc2nc(Nc3cnn(C)c3)ncc2-c2ccc(OC(F)F)c(F)c2)c1 [Compound 132, N-(3-bromo-5-((5-(4-(difluoromethoxy)-3-fluorophenyl)-2-((1-methyl-1H-pyrazol-4-yl)amino)pyrimidin-4-yl)amino)phenyl)acrylamide]
GI50 [1]: 40 nM | GI50 [2]: 34 nM | pIC50 (A431 cells; Homo sapiens, A-431, 72 h): 7.29 | GI50 [3]: 345 nM

C=CC(=O)Nc1ccc(F)c(Nc2nc(Nc3cnn(C)c3)ncc2-c2cc(F)c(C(F)(F)F)c(OC)c2)c1 [Compound 133, N-(4-fluoro-3-((5-(3-fluoro-5-methoxy-4-(trifluoromethyl)phenyl)-2-((1-methyl-1H-pyrazol-4-yl)amino)pyrimidin-4-yl)amino)phenyl)acrylamide]
GI50 [1]: 322 nM | GI50 [2]: 251 nM | pIC50 (A431 cells; Homo sapiens, A-431, 72 h): 6.40 | GI50 [3]: 1270 nM

C=CC(=O)Nc1ccc(F)c(Nc2nc(Nc3cnn(C)c3)ncc2-c2cc(F)c(F)c(C(F)F)c2)c1 [Compound 141, N-(3-((5-(3-(difluoromethyl)-4,5-difluorophenyl)-2-((1-methyl-1H-pyrazol-4-yl)amino)pyrimidin-4-yl)amino)-4-fluorophenyl)acrylamide]
GI50 [1]: 25 nM | GI50 [2]: 16 nM | pIC50 (A431 cells; Homo sapiens, A-431, 72 h): 7.89 | GI50 [3]: 167 nM

C=CC(=O)Nc1ccc(F)c(Nc2nc(Nc3cnn(C)c3)ncc2-c2cc(F)c(F)c(F)c2)c1 [Compound 149, N-(4-fluoro-3-((2-((1-methyl-1H-pyrazol-4-yl)amino)-5-(3,4,5-trifluorophenyl)pyrimidin-4-yl)amino)phenyl)acrylamide]
GI50 [1]: 34 nM | GI50 [2]: 11 nM | pIC50 (A431 cells; Homo sapiens, A-431, 72 h): 7.96 | GI50 [3]: 92 nM

CN(C)C/C=C/C(=O)Nc1cccc(Nc2nc(Nc3cnn(C)c3)ncc2-c2cc(F)cc(F)c2)c1 [Compound 150, (E)-N-(3-((5-(3,5-difluorophenyl)-2-((1-methyl-1H-pyrazol-4-yl)amino)pyrimidin-4-yl)amino)phenyl)-4-(dimethylamino)but-2-enamide]
GI50 [1]: 110 nM | GI50 [2]: 126 nM | pIC50 (A431 cells; Homo sapiens, A-431, 72 h): 6.67 | GI50 [3]: 237 nM

C=CC(=O)Nc1cccc(Nc2nc(Nc3cnn(C)c3)ncc2-c2cc(F)c(Br)c(F)c2)c1 [Compound 152, N-(3-((5-(4-bromo-3,5-difluorophenyl)-2-((1-methyl-1H-pyrazol-4-yl)amino)pyrimidin-4-yl)amino)phenyl)acrylamide]
GI50 [1]: 34 nM | GI50 [2]: 11 nM | pIC50 (A431 cells; Homo sapiens, A-431, 72 h): 8.10 | GI50 [3]: 40 nM

C=CC(=O)Nc1cccc(Nc2nc(Nc3cnn(C)c3)ncc2-c2cc(F)c(C(F)(F)F)c(F)c2)c1 [Compound 153, N-(3-((5-(3,5-difluoro-4-(trifluoromethyl)phenyl)-2-((1-methyl-1H-pyrazol-4-yl)amino)pyrimidin-4-yl)amino)phenyl)acrylamide]
GI50 [1]: 34 nM | GI50 [2]: 13 nM | pIC50 (A431 cells; Homo sapiens, A-431, 72 h): 5.96 | GI50 [3]: 98 nM

C=CC(=O)Nc1cccc(Nc2nc(Nc3cnn(C)c3)ncc2-c2cc(F)c(Br)c(Cl)c2)c1 [Compound 154, N-(3-((5-(4-bromo-3-chloro-5-fluorophenyl)-2-((1-methyl-1H-pyrazol-4-yl)amino)pyrimidin-4-yl)amino)phenyl)acrylamide]
GI50 [1]: 81 nM | GI50 [2]: 34 nM | pIC50 (A431 cells; Homo sapiens, A-431, 72 h): 5.75 | GI50 [3]: 154 nM

C=CC(=O)Nc1ccc(F)c(Nc2nc(Nc3cnn(C)c3)ncc2-c2cc(C(F)F)cc(C(F)F)c2)c1 [Compound 155, N-(3-((5-(3,5-bis(difluoromethyl)phenyl)-2-((1-methyl-1H-pyrazol-4-yl)amino)pyrimidin-4-yl)amino)-4-fluorophenyl)acrylamide]
GI50 [1]: 133 nM | GI50 [2]: 107 nM | pIC50 (A431 cells; Homo sapiens, A-431, 72 h): 6.47 | GI50 [3]: 1670 nM

[2H]c1c(F)cc(-c2cnc(Nc3cnn(C)c3)nc2Nc2cc(NC(=O)C=C)ccc2F)cc1F [Compound 157, N-[3-({5-[3,5-difluoro(4-^2H)phenyl]-2-[(1-methyl-1H-pyrazol-4-yl)amino]pyrimidin-4-yl}amino)-4-fluorophenyl] prop-2-enamide]
GI50 [1]: 35 nM | GI50 [2]: 16 nM | pIC50 (A431 cells; Homo sapiens, A-431, 72 h): 7.64 | GI50 [3]: 151 nM

C=CC(=O)Nc1ccc(F)c(Nc2nc(Nc3cnn(C)c3)ncc2-c2cc(F)c(Cl)c(F)c2)c1 [Compound 158, N-(3-((5-(4-chloro-3,5-difluorophenyl)-2-((1-methyl-1H-pyrazol-4-yl)amino)pyrimidin-4-yl)amino)-4-fluorophenyl)acrylamide]
GI50 [1]: 15 nM | GI50 [2]: 11 nM | pIC50 (A431 cells; Homo sapiens, A-431, 72 h): 8.00 | GI50 [3]: 40 nM

C=CC(=O)Nc1cc(Cl)cc(Nc2nc(Nc3cnn(C)c3)ncc2-c2ccc(Br)c(F)c2)c1 [Compound 159, N-(3-((5-(4-bromo-3-fluorophenyl)-2-((1-methyl-1H-pyrazol-4-yl)amino)pyrimidin-4-yl)amino)-5-chlorophenyl)acrylamide]
GI50 [1]: 29 nM | GI50 [2]: 24 nM | pIC50 (A431 cells; Homo sapiens, A-431, 72 h): 7.64 | GI50 [3]: 125 nM

C=CC(=O)Nc1ccc(F)c(Nc2nc(Nc3cnn(C)c3)ncc2-c2cc(F)c(F)c(OC(F)F)c2)c1 [Compound 160, N-(3-((5-(3-(difluoromethoxy)-4,5-difluorophenyl)-2-((1-methyl-1H-pyrazol-4-yl)amino)pyrimidin-4-yl)amino)-4-fluorophenyl)acrylamide]
GI50 [1]: 63 nM | GI50 [2]: 68 nM | pIC50 (A431 cells; Homo sapiens, A-431, 72 h): 6.58 | GI50 [3]: 163 nM

CN(C)C/C=C/C(=O)Nc1ccc(F)c(Nc2nc(Nc3cnn(C)c3)ncc2-c2cc(F)cc(F)c2)c1 [Compound 161, (E)-N-(3-((5-(3,5-difluorophenyl)-2-((1-methyl-1H-pyrazol-4-yl)amino)pyrimidin-4-yl)amino)-4-fluorophenyl)-4-(dimethylamino)but-2-enamide]
GI50 [1]: 140 nM | GI50 [2]: 217 nM | pIC50 (A431 cells): 6.12 | GI50 [3]: 62 nM

C=CC(=O)Nc1ccc(F)c(Nc2nc(Nc3cnn(C)c3)ncc2-c2ccc3c(c2)OCC3)c1 [Compound 162, N-(3-((5-(2,3-dihydrobenzofuran-6-yl)-2-((1-methyl-1H-pyrazol-4-yl)amino)pyrimidin-4-yl)amino)-4-fluorophenyl)acrylamide]
GI50 [1]: 116 nM | GI50 [2]: 38 nM | pIC50 (A431 cells; Homo sapiens, A-431, 72 h): 7.08 | GI50 [3]: 428 nM

C=CC(=O)Nc1cc(F)cc(Nc2nc(Nc3cnn(C)c3)ncc2-c2cc(F)c(Br)c(Cl)c2)c1 [Compound 163, N-(3-((5-(4-bromo-3-chloro-5-fluorophenyl)-2-((1-methyl-1H-pyrazol-4-yl)amino)pyrimidin-4-yl)amino)-5-fluorophenyl)acrylamide]
GI50 [1]: 22 nM | GI50 [2]: 26 nM | pIC50 (A431 cells; Homo sapiens, A-431, 72 h): 6.89 | GI50 [3]: 104 nM

C=CC(=O)Nc1cc(F)cc(Nc2nc(Nc3cnn(C)c3)ncc2-c2cc(F)c(C(F)(F)F)c(F)c2)c1 [Compound 164, N-(3-((5-(3,5-difluoro-4-(trifluoromethyl)phenyl)-2-((1-methyl-1H-pyrazol-4-yl)amino)pyrimidin-4-yl)amino)-5-fluorophenyl)acrylamide]
GI50 [1]: 18 nM | GI50 [2]: 22 nM | pIC50 (A431 cells; Homo sapiens, A-431, 72 h): 6.99 | GI50 [3]: 157 nM

[2H]C([2H])([2H])Oc1cc(F)cc(-c2cnc(Nc3cnn(C)c3)nc2Nc2cc(NC(=O)C=C)ccc2F)c1 [Compound 165, N-(4-fluoro-3-((5-(3-fluoro-5-(methoxy-d3)phenyl)-2-((1-methyl-1H-pyrazol-4-yl)amino)pyrimidin-4-yl)amino)phenyl)acrylamide]
GI50 [1]: 110 nM | GI50 [2]: 70 nM | pIC50 (A431 cells; Homo sapiens, A-431, 72 h): 6.41 | GI50 [3]: 208 nM

Reference: patent US20230416232A1, “PYRIMIDINE COMPOUNDS, COMPOSITIONS, AND MEDICINAL APPLICATIONS THEREOF” (Blueprint Medicines Corporation, priority 2020, published 2023)
